Where “and” joins values, the source holds several entries; their conditions need not be identical. Identical values can stand only once. Entries after “also recorded” stand apart in the source; their conditions may differ. Like-named read-outs stand apart in the source and are kept apart here.
Columns and labels:
[1] = Pharmacokinetics: BGJ398 plasma concentrations; format: in vivo, human
[2] = tested on: solid tumors harboring FGFR alterations; assay: Antitumor activity, RECIST v1.0 tumor evaluations; format: in vivo, human
[3] = tested on: serum phosphate levels; assay: Pharmacodynamics: serum phosphate levels; format: in vivo, human; conditions: BGJ398 treatment; consistently at doses ≥ 100 mg
[4] = tested on: patients with advanced solid tumors harboring FGFR genetic alterations; assay: Patient disposition and treatment exposure; format: in vivo
[5] = tested on: patients with advanced solid tumors harboring FGFR genetic alterations
[6] = tested on: FGFR4; conditions: read-out: Half maximal inhibitory concentration; cited from earlier work
[7] = tested on: RT112 human tumor-derived FGFR gene fusion bladder cancer cell line; conditions: read-out: Half maximal inhibitory concentration; cited from earlier work
[8] = on the basis of preclinical data ref 20; cited from earlier work
[9] = 36 patients with FGFR1-amplified sqNSCLC, ≥ 100 mg continuously
[10] = eight patients with FGFR3-mutated bladder/urothelial cancer, ≥ 100 mg

## CCN1CCN(c2ccc(Nc3cc(N(C)C(=O)Nc4c(Cl)c(OC)cc(OC)c4Cl)ncn3)cc2)CC1 [BGJ398, 3-(2,6-dichloro-3,5-dimethoxy-phenyl)-1-{6-[4-(4-ethyl-piperazin-1-yl)-phenylamino]-pyrimidin-4-yl}−1-methyl-urea]
[1]; from 20 to 150 mg once daily
  Increase of mean AUC from 0 to 24 hours on day 1: approximately nine
[1]; human, plasma, oral, Median time to reach maximum plasma concentration, after a single dose
  Tmax: […]
[2]; 31 sqNSCLC patients treated at 125 mg continuously
  Patients continuing to receive treatment for > 8 weeks: […]
[2]; [9]
  Patients with SD: 14 patients
[2]; 85 patients treated at ≥ 100 mg with evaluable data (28 patients)
  Patients with reduced tumor burden: 32.9%
[2]; FGFR1-amplified sqNSCLC, unconfirmed PR
  Time responder remained on study: […]
[2]; all patients, N = 132
  Patients with best overall response of SD: […]
[2]; all three patients with FGFR2-altered cholangiocarcinoma with pre- and post-treatment assessments
  Tumor burden change: reduced tumor burden
[2]; breast cancer, ≥ 100 mg, 10 of 32 patients
  Patients with best response of SD: 31%
[2]; doses ≥ 100 mg, FGFR1-amplified sqNSCLC and FGFR3-mutant bladder/urothelial cancer, six confirmed
  Partial responses: seven
[2]; [10]
  Disease control rate (DCR): 75%
  Patients achieving PRs (overall response rate): 37.5% and 38%
[2]; of 132 patients across all doses
  Patients with disease control: 49
[3]
  Serum phosphate levels: increased serum phosphate levels; also recorded: Elevated serum phosphate levels
[4]; N = 132
  Discontinuation because of death: 3.8%
  Discontinuation because of disease progression: 67.4%
[4]; human, in vivo
  Discontinuation because of AEs: 12.9%
[5]; 100 mg, n = 1
  Dose-limiting toxicity observed: […]
[5]; 150 mg, n = 1 each
  Dose-limiting toxicity observed: […]
[5]; after BGJ398 interruption and/or concomitant medication
  Reversibility of DLTs: reversible
[5]; all doses, N = 132
  Patients who died while receiving treatment or within 28 days of the last dose: Fifteen
[5]; dose-determining set, four of 34 patients, cycle 1
  Patients experiencing DLTs: […]
[5]; human, in vivo
  AE leading to discontinuation, patients: 13.6%
  AE requiring dose adjustment or interruption, patients: 59.1%
  At least one AE suspected to be treatment related, patients: 95.5%
  Eye-related AE leading to discontinuation, patients: 4.5%
  Grade 3/4 AE suspected to be treatment related, patients: 31.1%
  Grade 3/4 TEAEs, patients: 52.3%
  Median time to first dose interruption: 22 days
  Treatment-emergent AEs (TEAEs), patients: 99.2%
  Treatment-related alopecia, patients: 23.5%
  Treatment-related decreased appetite, patients: 28.8%
  Treatment-related diarrhea, patients: 27.3%
  Treatment-related nausea, patients: 22.0%
  Treatment-related stomatitis, patients: 36.4%
[5]; in vivo
  Dose-limiting toxicity observed: hyperphosphatemia
[5]; of fifteen deaths
  Deaths suspected to be BGJ398 related: One
[5]; oral, once daily
  Maximum tolerated dose (MTD): […]
[5]; oral, once daily, 3-weeks-on/1-week-off schedule
  Recommended phase II dose (RP2D): […]
[6]
  IC50: […]
[7]
  IC50: 4 nM
[8]
  Predicted efficacious level (unbound BGJ398 concentration): […]
